How the values were obtained:
Format in all cases: cell-based
[1] = biological target: T1, asc-1 of mouse (co-expressed with 4F2hc of mouse) (Mus musculus, UniProt P63115); experiment: Inhibition of 14C-alanine incorporation by added amino acids and analogs in oocytes co-expressing asc-1 and 4F2hc; settings: 14C-alanine 50 μM; 5 mM non-labeled compound; Na+-free uptake solution
T1 construct: expressed in transfected cells; host or cells: Xenopus oocytes injected with cRNA
T1 sequence (P63115 1-530): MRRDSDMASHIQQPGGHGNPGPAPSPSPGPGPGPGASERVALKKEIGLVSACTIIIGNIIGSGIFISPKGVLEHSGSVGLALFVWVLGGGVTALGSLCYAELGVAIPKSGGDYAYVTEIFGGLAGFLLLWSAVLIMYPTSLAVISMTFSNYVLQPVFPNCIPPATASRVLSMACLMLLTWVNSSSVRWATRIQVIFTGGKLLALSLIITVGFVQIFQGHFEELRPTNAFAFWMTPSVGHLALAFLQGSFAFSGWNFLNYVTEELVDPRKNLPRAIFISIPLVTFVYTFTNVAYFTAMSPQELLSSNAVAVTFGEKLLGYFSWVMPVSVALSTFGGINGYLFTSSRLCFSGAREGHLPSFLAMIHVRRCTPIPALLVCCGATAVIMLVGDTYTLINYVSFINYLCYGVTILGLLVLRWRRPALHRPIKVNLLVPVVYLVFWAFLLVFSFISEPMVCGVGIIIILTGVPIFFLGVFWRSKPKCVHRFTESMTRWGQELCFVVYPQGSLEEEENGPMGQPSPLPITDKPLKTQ
T1 sequence (P10852 1-526 partner): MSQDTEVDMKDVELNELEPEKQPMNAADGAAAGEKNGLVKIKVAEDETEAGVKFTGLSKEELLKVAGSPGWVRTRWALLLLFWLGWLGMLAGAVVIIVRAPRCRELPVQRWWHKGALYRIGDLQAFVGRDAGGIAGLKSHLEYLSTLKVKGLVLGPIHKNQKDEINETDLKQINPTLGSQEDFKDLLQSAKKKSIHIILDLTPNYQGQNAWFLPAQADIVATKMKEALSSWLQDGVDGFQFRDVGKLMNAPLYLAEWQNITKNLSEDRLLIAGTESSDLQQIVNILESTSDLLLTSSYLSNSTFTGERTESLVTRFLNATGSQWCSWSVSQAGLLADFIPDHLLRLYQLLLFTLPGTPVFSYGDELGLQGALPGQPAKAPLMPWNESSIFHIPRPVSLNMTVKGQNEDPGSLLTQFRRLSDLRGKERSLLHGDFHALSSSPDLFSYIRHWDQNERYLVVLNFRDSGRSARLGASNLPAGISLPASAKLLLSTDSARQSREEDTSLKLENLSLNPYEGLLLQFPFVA
Procedure: Into oocytes were injected 12 ng of asc-1 gene cRNA of mouse, 13 ng of 4F2hc gene cRNA of mouse or 12 ng asc-1 gene cRNA of mouse/13 ng of 4F2hc gene cRNA of mouse to express followed by incubating for 3 days. […] Thus, the oocytes were allowed to stand for 30 minutes in a Na^+-free uptake solution [100 mM choline chloride, 2 mM potassium chloride, 1.8 mM calcium chloride, 1 mM magnesium chloride, 5 mM HEPES; pH 7.4] containing ^14C-alanine (100 μM) as a substrate and the rate of the substrate incorporated into the cells was measured by way of counting the radioactivity incorporated thereinto.
In an experiment of incorporation of alanine by oocytes into which both asc-1 gene cRNA of mouse and 4F2hc gene cRNA of mouse were injected, influence of addition of various amino acid and analogs thereof was investigated.
In an experiment of incorporation of alanine, a method according to that mentioned in the above Example 2(1) was carried out using oocytes into which both asc-1 gene cRNA of mouse and 4F2hc gene cRNA of mouse were injected. Here, a Na^+-free uptake solution was used and incorporation of ^14C-alanine (50 μM) was measured in the presence and absence of 5 mM of various compounds (non-labeled).

[2] = biological target: T1, asc-1 of mouse (co-expressed with 4F2hc of mouse); experiment: Incorporation of radiolabeled amino acids and analogs by oocytes co-expressing asc-1 and 4F2hc; settings: for incorporation into the oocytes as substrate: radiolabeled substrate, oocytes expressing both asc-1 and 4F2hc, Na+-free uptake solution; for transport by asc-1 (affinity in words): summary statement, asc-1 co-existing with 4F2hc
Outline: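 Xenopus oocytes injected with mouse asc-1 (12 ng) and 4F2hc (13 ng) cRNA, cultured 3 days. Uptake over 30 minutes in Na+-free buffer, pH 7.4, with 100 μM ^14C-alanine or other radiolabeled amino acids/analogs, measured by counting incorporated radioactivity; Na+, Cl− and pH effects tested via substituted solutions.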

[3] = biological target: T2, intracellular substrate-binding site of asc-1 of mouse (Mus musculus, UniProt P63115); experiment: Release of injected 14C-amino acid from oocytes co-expressing asc-1 and 4F2hc on extracellular alanine; settings: alanine 100 μM added to Na+-free uptake solution
T2 construct: expressed in transfected cells; host or cells: Xenopus oocytes injected with cRNA
T2 sequence (P63115 1-530): T1 sequence (P63115 1-530)
T2 sequence (P10852 1-526 partner): T1 sequence (P10852 1-526 partner)
Procedure: In oocytes into which cRNA of asc-1 gene and cRNA of 4F2hc gene of mouse were injected together, release of preloaded ^14C-amino acid mediated by asc-1 was checked whereby the substrate selectivity of intracellular substrate-binding site of asc-1 was checked.
^14C-Amino acid (˜3nCi) of 100 μM in an amount of 100 nl was injected into the oocytes into which both asc-1 gene cRNA and 4F2hc gene cRNA of mouse were injected together, washed with an ice-cooled Na^+-free uptake solution containing no alanine and transferred to a Na^+-free uptake solution to which alanine (100 μM) was added or not added at room temperature (18° C.-22° C.) and the amount of ^14C-amino acid released outside the cells was measured.
Black bars in FIG. 21 show the case where alanine was added to a Na^+-free uptake solution while bars with oblique lines show the case where alanine was not added to a Na^+-free uptake solution.

SMILES	inhibition of incorporation of 14C-alanine mediated by asc-1 [1]	influence of pH on incorporation of alanine [2]	influence of salt on incorporation of alanine ([2]; choline changed to sodium, chlorine ion changed to gluconic acid ion)	incorporation into the oocytes as substrate [2]	transport by asc-1 (affinity in words) [2]	release of injected 14C-labeled amino acid by extracellular alanine [3]
C[C@H](N)C(=O)O [L-Alanine]	particularly strongly inhibited	no significant dependency on pH	does no affect	big incorporation	highly affinitive	increase in release
N[C@@H](CO)C(=O)O [L-Serine]	particularly strongly inhibited			big incorporation	highly affinitive	increase in release

Reference: patent US20070122422A1, “Sodium-independent small neutral amino acid transporter transporting L- and D- amino acids” (Japan Science and Technology Corporation, priority 2000, published 2007)
